This note sets out measurements from patent publication US9403776B2, “Aryl- and heteroaryl-substituted tetrahydrobenzazepines and use thereof to block reuptake of norepinephrine, dopamine, and serotonin” (Albany Molecular Research, Inc., priority 2005, dated 2016).

Counter-ions that a name gives are not always drawn.

What is called melting point is the temperature of the solid-liquid transition. Consider `CN1CCC(c2ccccc2)c2ccc(-c3cncnc3)cc2C1` (single isomer, unassigned; (+)) (as salt: maleate) [Example 28, (+)-2-methyl-5-phenyl-8-(pyrimidin-5-yl)-2,3,4,5-tetrahydro-1H-benzo[c]azepine], for which the melting point was 93 to 96 °C. The figure for `c1ccc(CN2CCC(c3ccccc3)c3ccc(N4CCOCC4)cc3C2)cc1` (single isomer, unassigned; (+)) (as salt: maleate) [Example 61, (+)-4-(2-benzyl-5-phenyl-2,3,4,5-tetrahydro-1H-benzo[c]azepin-8-yl)morpholine] is 108 to 110 °C; for `Cc1nc(-c2ccc3c(c2)CN(C)CCC3c2ccccc2)no1` (single isomer, unassigned; (+)) (as salt: tartrate) [Example 33, (+)-5-methyl-3-(2-methyl-5-phenyl-2,3,4,5-tetrahydro-1H-benzo[c]azepin-8-yl)-1,2,4-oxadiazole] it is 102 to 104 °C; for `COc1ccc2c(c1)CN(C)CCC2c1ccc(F)c(F)c1` (racemic) (as salt: hydrochloride) [Example 9, (+/−)-5-(3,4-difluorophenyl)-8-methoxy-2-methyl-2,3,4,5-tetrahydro-1H-benzo[c]azepine] it is 139 to 141 °C.

As to `COc1ccc2c(c1)CN(C)CCC2c1ccc(F)cc1` (single isomer, unassigned; (-)) (as salt: hydrochloride) [Example 4 (−), (−)-5-(4-fluorophenyl)-8-methoxy-2-methyl-2,3,4,5-tetrahydro-1H-benzo[c]azepine], the melting point lay within 246 to 248 °C. In the case of `COc1ccc2c(c1)CN(C)CCC2c1ccccc1Cl` (racemic) (as salt: hydrochloride) [Example 10, (+/−)-5-(2-chlorophenyl)-8-methoxy-2-methyl-2,3,4,5-tetrahydro-1H-benzo[c]azepine], the melting point is 129 to 132 °C. `CN1CCC(c2ccc(Cl)cc2)c2ccc(N3CCOCC3)cc2C1` (single isomer, unassigned; (-)) (as salt: maleate) [Example 47, (−)-4-(5-(4-chlorophenyl)-2-methyl-2,3,4,5-tetrahydro-1H-benzo[c]azepin-8-yl)morpholine] yielded a melting point of 99 to 100 °C. The figure for `COc1ccc2c(c1)CN(C)CCC2c1ccccc1` (racemic) (as salt: fumarate) [Example 1, (+/−)-8-methoxy-2-methyl-5-phenyl-2,3,4,5-tetrahydro-1H-benzo[c]azepine] is 171 to 173 °C; for `CN1CCC(c2ccccc2)c2ccc(N3CCN(c4ccccn4)CC3)cc2C1` (single isomer, unassigned; (-)) (as salt: tartrate) [Example 68 (−), (−)-2-methyl-5-phenyl-8-(4-(pyridine-2-yl)piperazin-1-yl)-2,3,4,5-tetrahydro-1H-benzo[c]azepine] it is 112 to 115 °C. In turn, `CN1CCC(c2ccccc2)c2ccc(-c3cccnn3)cc2C1` (single isomer, unassigned; (+)) (as salt: hydrochloride) [Example 25, (+)-2-methyl-5-phenyl-8-(pyridazin-3-yl)-2,3,4,5-tetrahydro-1H-benzo[c]azepine] came in with a melting point of 154 to 156 °C. The compound `Cc1ccc(-c2ccc3c(c2)CN(C)CCC3c2ccc(C#N)c(F)c2)nn1` (single isomer, unassigned; (-)) (as salt: tartrate) [Example 92 (−), (−)-2-fluoro-4-(2-methyl-8-(6-methylpyridazin-3-yl)-2,3,4,5-tetrahydro-1H-benzo[c]azepin-5-yl)benzonitrile] yielded a melting point of 122 to 127 °C. Next, `COc1ccc2c(c1)CN(C)CCC2c1ccc2sccc2c1` (single isomer, unassigned; (+)) (as salt: maleate) [Example 52 (+), (+)-5-benzo[b]thiophen-5-yl-8-methoxy-2-methyl-2,3,4,5-tetrahydro-1H-benzo[c]azepine]: 92 to 96 °C.
